ChEMBL document CHEMBL1629516, “Novel insights for dihydroorotate dehydrogenase class 1A inhibitors discovery” (Eur J Med Chem, 2010)
pKi: −log10 of the molar value. The source made the active and inactive calls. No cut-off for these calls is given here.

Target: not listed separately
Assay: (§1) Inhibition of Trypanosoma cruzi dihydroorotate dehydrogenase by isothermal titration calorimetry
Conditions: read-out: Ki(app)

pKi	SMILES
3.86	O=C(O)c1[nH]c(=O)[nH]c(=O)c1[N+](=O)[O-]
4.02	Nc1c(C(=O)O)[nH]c(=O)[nH]c1=O
4.66	O=C(O)c1nc(=O)[nH]c(=O)[nH]1 [OTERACIL]
4.14	O=C(O)c1cc(=O)[nH]c(=O)[nH]1 [OROTIC ACID]
3.52	CN(C)Cc1c(C(=O)O)[nH]c(=O)[nH]c1=O

SMILES	pKi
O=C(O)c1[nH]c(=O)[nH]c(=O)c1F	4.71

System: Trypanosoma cruzi
Assay: as §1
Conditions: not given

Ki(app)	SMILES
inactive	O=C1OCc2c1[nH]c(=O)[nH]c2=O
inactive	O=c1[nH]c(=O)c2nn[nH]c2[nH]1
inactive	Oc1nc(O)c2nc(O)[nH]c2n1
inactive	CCCCOC(=O)c1cc(O)nc(O)n1

Target: not listed separately
Assay: Inhibition of Leishmania major dihydroorotate dehydrogenase by isothermal titration calorimetry
Conditions: read-out: Ki(app)

pKi	SMILES
3.67	O=C(O)c1[nH]c(=O)[nH]c(=O)c1[N+](=O)[O-]
4.08	Nc1c(C(=O)O)[nH]c(=O)[nH]c1=O
